Results on 16 molecules are retold here after US9656990B2, “Cathepsin cysteine protease inhibitors” (Merck Sharp & Dohme Corp., priority 2014, dated 2017).

One assay concerns the target human cathepsin K (UniProt P43236, Y175D/V274L, species not given). Briefly: Cathepsin K Assay. It counts as biochemical. The note with it: IP from dose response curve; Z-Leu-Arg-AMC substrate, pH 5.5; read-out: hrbCat K (IP (nM)).
A further assay deals with T1, human cathepsin F (Homo sapiens, UniProt Q9UBX1).
T1 sequence (Q9UBX1 271-484): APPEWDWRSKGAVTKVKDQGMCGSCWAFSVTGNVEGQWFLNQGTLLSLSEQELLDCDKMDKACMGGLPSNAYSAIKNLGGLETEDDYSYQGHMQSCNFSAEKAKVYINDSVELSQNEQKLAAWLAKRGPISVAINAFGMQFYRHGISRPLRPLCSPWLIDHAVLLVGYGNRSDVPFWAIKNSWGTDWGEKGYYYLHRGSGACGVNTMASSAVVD
Briefly: Cathepsin F Assay. Type of assay: biochemical. Conditions: IP from dose response curve; Z-Phe-Arg-AMC substrate, pH 5.5; read-out: hCat F (IP (nM)). An outline of the steps: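 Human cathepsin F (10 nM) preincubated 15 min at room temperature with compounds in 50 mM MES pH 5.5, 2.5 mM EDTA, 2.5 mM DTT, 10% DMSO. Z-Phe-Arg-AMC (8 μM) added; AMC release read by fluorescence (Ex 360/Em 460 nm) over 20 min, inhibition fit to dose-response model.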

As to `N#CC1(NC(=O)[C@@H]2CCCC[C@H]2c2nn(-c3ccc(-n4cccn4)cc3)cc2-c2ccc(N3CCS(=O)(=O)CC3)cc2)CC1` [Example 123, (1R,2R)-2-(1-(4-(1H-pyrazol-1-yl)phenyl)-4-(4-(1,1-dioxidothiomorpholino)phen-yl)-1H-pyrazol-3-yl)-N-(1-cyanocyclopropyl)cyclohex-anecarboxamide], the IC50 on human cathepsin K came to 0.96 nM; on human cathepsin F, 593 nM.
For `N#CC1(NC(=O)[C@@H]2CCCC[C@H]2c2nn(-c3cccc(C(F)(F)F)c3)cc2-c2ccc(N3CCS(=O)(=O)CC3)cc2)CC1` [Example 124, (1R,2R)-N-(1-cyanocyclopropyl)-2-(4-(4-(1,1-dioxidothiomorpholino)phen-yl)-1-(3-(trifluoromethyl)phenyl)-1H-pyrazol-3-yl)cyclohexanecarboxamide] the same measures were 1.58 nM and 588 nM.
Taken in the same sequence, the figures for `N#CC1(NC(=O)[C@@H]2CCCC[C@H]2c2nn(-c3ccccc3OC(F)(F)F)cc2-c2ccc(N3CCS(=O)(=O)CC3)cc2)CC1` [Example 125, (1R,2R)-N-(1-cyanocyclopropyl)-2-(4-(4-(1,1-dioxidothiomorpholino)phen-yl)-1-(2-(trifluoromethoxy)phenyl)-1H-pyrazol-3-yl)cyclohexanecarboxamide] were 2.18 nM and 836 nM.
For `N#CC1(NC(=O)[C@@H]2CCCC[C@H]2c2nn(-c3cc(F)c(F)c(F)c3)cc2-c2ccc(N3CCS(=O)(=O)CC3)cc2)CC1` [Example 128, (1R,2R)-N-(1-cyanocyclopropyl)-2-(4-(4-(1,1-dioxidothiomorpholino)phen-yl)-1-(3,4,5-trifluorophenyl)-1H-pyrazol-3-yl)cyclohexanecarboxamide] the same measures were 0.79 nM and 319 nM.
Turning to `N#CC1(NC(=O)[C@@H]2CCCC[C@H]2c2nn(-c3ccc(F)cc3)cc2-c2ccc(N3CCS(=N)(=O)CC3)cc2)CC1` [Example 129, (1R,2R)-N-(1-cyanocyclopropyl)-2-(1-(4-fluorophenyl)-4-(4-(1-imino-1-oxidothiomorpholino)phenyl)-1H-pyrazol-3-yl)cyclohexanecarboxamide], the IC50 on human cathepsin K turned out to be 1.84 nM; at human cathepsin F, 932 nM.
For `CN=S1(=O)CCN(c2ccc(-c3cn(-c4ccc(F)cc4)nc3[C@@H]3CCCC[C@H]3C(=O)NC3(C#N)CC3)cc2)CC1` [Example 130, (1R,2R)-N-(1-cyanocyclopropyl)-2-(1-(4-fluorophenyl)-4-(4-(1-(methylimino)-1-oxidothiomorpholino)phenyl)-1H-pyrazol-3-yl)cyclohexanecarboxamide] the same measures were 1.92 nM and 854 nM.
On to `N#CC1(NC(=O)[C@@H]2CCCC[C@H]2c2nn(-c3ccc(F)cc3F)cc2-c2ccc(N3CCS(=O)(=O)CC3)cc2)CC1` [Example 131, (1R,2R)-N-(1-cyanocyclopropyl)-2-(1-(2,4-difluorophenyl)-4-(4-(1,1-dioxidothiomorpholino)phen-yl)-1H-pyrazol-3-yl)cyclohexanecarboxamide], for which the IC50 at human cathepsin K amounted to 2.49 nM; on human cathepsin F it was 1540 nM.
For `N#Cc1ccc(-n2cc(-c3ccc(N4CCS(=O)(=O)CC4)cc3)c([C@@H]3CCCC[C@H]3C(=O)NC3(C#N)CC3)n2)c(F)c1` [Example 132, (1R,2R)-2-(1-(4-cyano-2-fluorophenyl)-4-(4-(1,1-dioxidothiomorpholino)phen-yl)-1H-pyrazol-3-yl)-N-(1-cyanocyclopropyl)cyclohex-anecarboxamide] the same measures were 2.51 nM and 733 nM.
For `N#CC1(NC(=O)[C@@H]2CCCC[C@H]2c2nn(-c3c(F)cccc3F)cc2-c2ccc(N3CCS(=O)(=O)CC3)cc2)CC1` [Example 133, (1R,2R)-N-(1-cyanocyclopropyl)-2-(1-(2,6-difluorophenyl)-4-(4-(1,1-dioxidothiomorpholino)phen-yl)-1H-pyrazol-3-yl)cyclohexanecarboxamide] the same measures were 3.56 nM and 2340 nM.
As for `CC(=O)N1CC(c2ccc(-c3cn(-c4ccc(F)cc4)nc3[C@@H]3CCCC[C@H]3C(=O)NC3(C#N)CC3)cc2)C1` [Example 134, (1R,2R)-2-(4-(4-(1-acetylazetidin-3-yl)phenyl)-1-(4-fluorophenyl)-1H-pyrazol-3-yl)-N-(1-cyanocyclopropyl)cyclohex-anecarboxamide], the results for the IC50 at human cathepsin K and at human cathepsin F were 1.57 nM and 210 nM, respectively.
Consider `CNC(=O)N1CC(c2ccc(-c3cn(-c4ccc(F)cc4)nc3[C@@H]3CCCC[C@H]3C(=O)NC3(C#N)CC3)cc2)C1` [Example 135, 3-(4-(3-((1R,2R)-2-((1-cyanocyclopropyl)carbamoyl)cyclohexyl)-1-(4-fluorophenyl)-1H-pyrazol-4-yl)phenyl)-N-methylazetidine-1-carboxamide], for which the IC50 at human cathepsin K is 0.71 nM; at human cathepsin F, 64 nM.
For `N#CC1(NC(=O)[C@@H]2CCCC[C@H]2c2nn(-c3ccc(F)cc3)cc2-c2ccc(C3CN(C(=O)NCC(F)(F)F)C3)cc2)CC1` [Example 136, 3-(4-(3-((1R,2R)-2-((1-cyanocyclopropyl)carbamoyl)cyclohexyl)-1-(4-fluorophenyl)-1H-pyrazol-4-yl)phenyl)-N-(2,2,2-trifluoroethyl)azetidine-1-carboxamide] the same measures were 0.97 nM and 83 nM.
For `N#CC1(NC(=O)[C@@H]2CCCC[C@H]2c2nn(-c3ccc4[nH]ccc4c3)cc2-c2ccc(N3CCS(=O)(=O)CC3)cc2)CC1` [Example 137, (1R,2R)-N-(1-cyanocyclopropyl)-2-(4-(4-(1,1-dioxidothiomorpholino)phen-yl)-1-(1H-indol-5-yl)-1H-pyrazol-3-yl)cyclohexanecarboxamide] the same measures were 8.43 nM and 2830 nM.
As for `CCN=S1(=O)CCN(c2ccc(-c3cn(-c4ccc(F)cc4)nc3[C@@H]3CCCC[C@H]3C(=O)NC3(C#N)CC3)cc2)CC1` [Example 138, (1R,2R)-N-(1-cyanocyclopropyl)-2-(4-(4-(1-(ethylimino)-1-oxidothiomorpholino)phenyl)-1-(4-fluorophenyl)-1H-pyrazol-3-yl)cyclohexanecarboxamide], the IC50 at human cathepsin K amounted to 1.62 nM; on human cathepsin F it was 725 nM.
For `Cc1c(-c2ccc(N3CCS(=O)(=O)CC3)cc2)c([C@@H]2CCCC[C@H]2C(=O)NC2(C#N)CC2)nn1-c1ccc(F)cc1` [Example 139, (1R,2R)-N-(1-cyanocyclopropyl)-2-(4-(4-(1,1-dioxidothiomorpholino)phen-yl)-1-(4-fluorophenyl)-5-methyl-1H-pyrazol-3-yl)cyclohexanecarboxamide], the values for the IC50 on human cathepsin K and at human cathepsin F were 7.48 nM and 649 nM, respectively.
Taken in the same sequence, the figures for `CC(C)N=S1(=O)CCN(c2ccc(-c3cn(-c4ccc(F)cc4)nc3[C@@H]3CCCC[C@H]3C(=O)NC3(C#N)CC3)cc2)CC1` [Example 140, (1R,2R)-N-(1-cyanocyclopropyl)-2-(1-(4-fluorophenyl)-4-(4-(1-(isopropylimino)-1-oxidothiomorpholino)phenyl)-1H-pyrazol-3-yl)cyclohexanecarboxamide] were 1.29 nM and 782 nM.
